# Where two headings read alike, the source gives them in different places.
# Key:
# [1] = system: human non-cancerous hepatocytes (Hep); experiment: In vitro cytotoxicity testing (MTT assay), hepatocytes; format: cell-based; details: 24 h drug exposure, no recovery
# Method: A2780 ovarian carcinoma, A2780R cisplatin-resistant ovarian carcinoma, HOS osteosarcoma, G361 malignant melanoma, MCF7 breast carcinoma, A549 lung carcinoma, HeLa cervix carcinoma, 22Rv1 prostate carcinoma and Caco-2 colorectal carcinoma human cancer cell lines were purchased from the European Collection of Cell Cultures (ECACC), while the human non-cancerous hepatocytes (Hep) were supplied by Biopredic Intl. The cell lines were cultured, according to the suppliers`instructions, in RPMI-1640 medium supplemented with 10% of fetal calf serum, 1% of 2 mM glutamine, and 1% penicillin/streptomycin. All cell lines were grown as adherent monolayers at 37°C and 5% CO2 in a humidified atmosphere.
# The cells were seeded to 96-well culture plates, pre-incubated in drug-free media at 37°C for 24 h and treated typically with the 0.01–50.0 μM solutions, prepared from the stock solutions by dilution with medium, for 24 h at 37°C. […] In parallel with compounds 1–8 and the reference drugs, the cells were also treated with vehicle (0.1% DMF in medium; negative control) and Triton X-100 (1%; positive control) to assess the minimal and maximal cell damage, respectively. The MTT assay was used to determine the cell viability; MTT = 3-(4,5-dimethylthiazol-2-yl)-2,5-diphenyltetrazolium bromide. A concentration of the formed dye was evaluated spectrophotometrically at 540 nm (TECAN, Schoeller Instruments LLC).
# (§1) The data were expressed as the percentage of viability, where 100% and 0% represents the treatments with negative and positive controls, respectively. The data from the cancer cells were acquired from three independent experiments (conducted in triplicate) using cells from different passages. The resulting IC50 values (μM) were calculated from viability curves and the results are presented as arithmetic mean±SD.
# pUC19 plasmid dsDNA = experiment: Gel electrophoresis studies of interaction with pUC19 plasmid dsDNA; set-up: species or system Escherichia coli; details: 37°C, 24 h; for effect on electrophoretic mobility of pUC19 forms (SC, OC, L): 0.23-2.30 μM
# Method: Supercoiled pUC19 plasmid dsDNA (2686 bp, 1750 kDa) was isolated from Escherichia coli TOP10F’ by QIAprep Spin Miniprep Kit (Qiagen, Germany). The concentration and purity of the isolated plasmid DNA were evaluated spectrophotometrically. Plasmid was dissolved in nuclease-free water and stored at –20°C.
# 2 μL of these solutions were added to 18 μL of the pUC19 plasmid DNA water solution (300 ng per reaction, corresponding to a concentration of 23 μM calculated for the base pairs) and the mixture was left to react in the final 10% DMF/90% water solution containing the final concentrations of the complexes of 2.30, 1.15 and 0.23 μM, corresponding to 0.10, 0.05 and 0.01 metal-to-base pair stoichiometry. In parallel, the experiment was performed on plasmid DNA in the 10% DMF/90% water solution and in water. The reaction mixtures were incubated at 37°C for 24 h. An electrophoretic mobility was evaluated by gel electrophoresis ([…], 3 h) performed on a 0.8% (w/v) agarose gel containing EtBr (2.0 mg/L (w/v)) at ambient temperature in Tris-acetate/EDTA buffer. The bands on the obtained electrophoretogram were detected by an MUV21-CP-02 gel scanner (Major Science) and analysed with AlphaEaseFC software (version 4.0.0.34, Alpha Innotech) in order to evaluate the relative percentages of the SC, OC and L forms. Each experiment was performed in triplicate.
# MCL-1L (37 kDa) = experiment: Ex vivo Western blot of tumour tissues, MCL-1L; format: in vivo, mice; details: pooled tumour samples
# Method: Frozen tumour samples were homogenized by a bench blender IKA DI25 (IKA-Werke, Germany) in the presence of a lysis buffer [cOmplete Protease Inhibitor Cocktail (Roche, Germany), 50 mM Tris-HCl pH 7.5, 1 mM EGTA, 1 mM EDTA, 1 mM sodium orthovanadate, 50 mM sodium fluoride, 5 mM sodium pyrophosphate, 270 mM sucrose, 0.5% (v/v) Triton X-100]. Subsequently, the blended samples were centrifuged at 9.000 g at 4°C for 15 min. The supernatants were collected and the protein concentration was measured by the Brandford’s method using the Brandford reagent (Amresco, USA) according to the manufacturer’s manual. The measured samples were stored at -80°C for the following experiments.
# The expression of caspase 3, MCL-1, p53, and β-actin as loading control were evaluated by Western blot analysis and immunodetection. Lysates were mixed with a denaturing loading dye [250 mM Tris-HCl pH 6.8, 5% (v/v) β-mercaptoethanol, 10% (w/v) sodium dodecyl sulfate, 30% (v/v) glycerol, 0.04% (w/v) bromophenol blue], heated for 5 min at 70°C. To eliminate intra-species variability, and to obtain the same amount of proteins from all experimental groups, all samples from one group of animals were pooled together and loaded onto a 15% polyacrylamide denaturing gel. The final protein amount was 50 μg per well. After protein separation in the gel, they were transferred on the Immun-Blot polyvinylidene difluoride membrane 0.2 μm (Bio-Rad, USA). Then, the membrane was blocked by 5% (w/v) BSA in TBST [10 mM Tris-HCl pH 7.5, 150 mM NaCl, 0.1% (v/v) Tween-20]. […] HRP was detected by Clarity Western ECL Substrate (Bio-Rad, USA) using chemiluminescent documentation system Syngene PXi-4 (UK).
# [2] = system: A2780 ovarian carcinoma cells; experiment: In vitro cytotoxicity testing (MTT assay), A2780; format: cell-based, human
# Method: (§2) All cell lines were grown as adherent monolayers at 37°C and 5% CO2 in a humidified atmosphere.
# (§3) The MTT assay was used to determine the cell viability; MTT = 3-(4,5-dimethylthiazol-2-yl)-2,5-diphenyltetrazolium bromide. A concentration of the formed dye was evaluated spectrophotometrically at 540 nm (TECAN, Schoeller Instruments LLC).
# as §1
# [3] = system: Caco-2 colorectal carcinoma cells; experiment: In vitro cytotoxicity testing (MTT assay), Caco-2; format: cell-based, human; details: for IC50: 24 h drug exposure, no recovery, MTT, read-out: IC50±SD, Caco-2; for selectivity factor IC50(Hep)/IC50(cancer cell line): Caco-2
# Method: as §2, §3, §1
# [4] = 24 h drug exposure, no recovery, MTT, read-out: IC50±SD, A2780
structure (smiles),measurement,setting,value
"N.N.[Cl][Pt][Cl] [Cisplatin, cisplatin, reference compound]",IC50,[1],> 75 µM
same,"effect on electrophoretic mobility of pUC19 forms (SC, OC, L)",pUC19 plasmid dsDNA,increase the electrophoretic mobility
"Brc1cc[n+]([Pt-2]([I])([I])[n+]2ccc(Br)c3cc[nH]c32)c2[nH]ccc12 [Complex 6, cis-[Pt(4Braza)2I2]]",MCL-1L level in tumour tissue,MCL-1L (37 kDa),negligible effect
same,IC50,"[2]; 6 h exposure, read-out: IC50, A2780, time-dependent cytotoxicity",8.2 ± 0.5 µM
same,IC50,[2]; [4],3.2 ± 0.2 µM
same,IC50,"[2]; 48 h exposure, read-out: IC50, A2780, time-dependent cytotoxicity",0.4 ± 0.1 µM
same,IC50,[1],4.1 µM
same,"effect on electrophoretic mobility of pUC19 forms (SC, OC, L)",pUC19 plasmid dsDNA,did not significantly change the mobility
same,IC50,[3],0.4 ± 0.3 µM
same,selectivity factor IC50(Hep)/IC50(cancer cell line),[3],~10
"Cc1cc2c(Cl)cc[n+]([Pt-2]([I])([I])[n+]3ccc(Cl)c4cc(C)[nH]c43)c2[nH]1 [Complex 8, cis-[PtI2(2Me4Claza)2]]",MCL-1L level in tumour tissue,MCL-1L (37 kDa),considerably increased
same,IC50,[2]; [4],1.7 ± 0.3 µM
same,IC50,[1],9.5 µM
same,"effect on electrophoretic mobility of pUC19 forms (SC, OC, L)",pUC19 plasmid dsDNA,did not significantly change the mobility
same,amount of damaged OC and linear (L) forms of pUC19 DNA,pUC19 plasmid dsDNA; concentration-dependent,visibly increased
same,IC50,[3],0.4 ± 0.2 µM
same,selectivity factor IC50(Hep)/IC50(cancer cell line),[3],~24

# From paper PMC5131915, “Platinum(II) Iodido Complexes of 7-Azaindoles with Significant Antiproliferative Effects: An Old Story Revisited with Unexpected Outcomes” (PLoS ONE, 2016)
